Results published in PubChem BioAssay (NCI).
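Assay format: 96-well plates, 48-hour exposure. GI50 marks 50% less growth. TGI: concentration producing complete growth inhibition.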

Experiments:
Assay in all cases: DTP human tumour cell line panel, 48 h
U251 CNS = test system: U251 CNS
NCI/ADR-RES ovarian = test system: NCI/ADR-RES ovarian
HT29 colon = test system: HT29 colon
NCI-H23 lung = test system: NCI-H23 lung
NCI-H460 lung = test system: NCI-H460 lung
ACHN renal = test system: ACHN renal
SK-MEL-5 melanoma = test system: SK-MEL-5 melanoma
RXF 393 renal = test system: RXF 393 renal
MDA-MB-231 breast = test system: MDA-MB-231 breast
OVCAR-4 ovarian = test system: OVCAR-4 ovarian
MCF7 breast = test system: MCF7 breast
HOP-62 NSCLC = test system: HOP-62 NSCLC
NCI-H226 lung = test system: NCI-H226 lung
786-0 renal = test system: 786-0 renal
HCT-116 colon = test system: HCT-116 colon
MALME-3M melanoma = test system: MALME-3M melanoma
TK-10 renal = test system: TK-10 renal
SNB-19 CNS = test system: SNB-19 CNS
HCT-15 colon = test system: HCT-15 colon
PC-3 prostate = test system: PC-3 prostate
HS 578T breast = test system: HS 578T breast
SK-MEL-28 melanoma = test system: SK-MEL-28 melanoma
OVCAR-8 ovarian = test system: OVCAR-8 ovarian
HOP-92 NSCLC = test system: HOP-92 NSCLC
T-47D breast = test system: T-47D breast
EKVX NSCLC = test system: EKVX NSCLC
NCI-H522 lung = test system: NCI-H522 lung
SW-620 colon = test system: SW-620 colon
UACC-257 melanoma = test system: UACC-257 melanoma
UO-31 renal = test system: UO-31 renal
SK-OV-3 ovarian = test system: SK-OV-3 ovarian
MDA-MB-435 = test system: MDA-MB-435
SK-MEL-2 melanoma = test system: SK-MEL-2 melanoma
SF-539 CNS = test system: SF-539 CNS
HCC-2998 colon = test system: HCC-2998 colon
SF-268 CNS = test system: SF-268 CNS
K-562 leukemia = test system: K-562 leukemia
COLO 205 colon = test system: COLO 205 colon
DU-145 prostate = test system: DU-145 prostate
A498 renal = test system: A498 renal
LOX IMVI melanoma = test system: LOX IMVI melanoma
BT-549 breast = test system: BT-549 breast
M14 melanoma = test system: M14 melanoma
OVCAR-5 ovarian = test system: OVCAR-5 ovarian
MOLT-4 leukemia = test system: MOLT-4 leukemia
A549 NSCLC = test system: A549 NSCLC
SNB-75 CNS = test system: SNB-75 CNS
HL-60(TB) leukemia = test system: HL-60(TB) leukemia
UACC-62 melanoma = test system: UACC-62 melanoma
SN12C renal = test system: SN12C renal
SF-295 CNS = test system: SF-295 CNS
IGROV1 ovarian = test system: IGROV1 ovarian
OVCAR-3 ovarian = test system: OVCAR-3 ovarian
KM12 colon = test system: KM12 colon
CCRF-CEM leukemia = test system: CCRF-CEM leukemia
CAKI-1 renal = test system: CAKI-1 renal
RPMI-8226 leukemia = test system: RPMI-8226 leukemia

CC1CCC(C(C)C2C(O)CC3C4CC=C5CC(O)CCC5(C)C4CCC32C)NC1 (configuration not stated)
TGI (U251 CNS): 70.3 µM
TGI (NCI/ADR-RES ovarian): 58.2 µM
TGI (HT29 colon): > 100 µM
TGI (NCI-H23 lung): > 100 µM
TGI (NCI-H460 lung): > 100 µM
TGI (ACHN renal): > 100 µM
TGI (SK-MEL-5 melanoma): > 100 µM
TGI (RXF 393 renal): > 100 µM
TGI (MDA-MB-231 breast): 81.6 µM
TGI (OVCAR-4 ovarian): 53.4 µM
TGI (MCF7 breast): > 100 µM
TGI (HOP-62 NSCLC): 66 µM
TGI (NCI-H226 lung): > 100 µM
TGI (786-0 renal): 89.9 µM
TGI (HCT-116 colon): > 100 µM
TGI (MALME-3M melanoma): 55.2 µM
TGI (TK-10 renal): 30.4 µM
TGI (SNB-19 CNS): 74.5 µM
TGI (HCT-15 colon): > 100 µM
TGI (PC-3 prostate): 95.4 µM
TGI (HS 578T breast): > 100 µM
TGI (SK-MEL-28 melanoma): > 100 µM
TGI (OVCAR-8 ovarian): 29.3 µM
TGI (HOP-92 NSCLC): 69.8 µM
TGI (T-47D breast): > 100 µM
TGI (EKVX NSCLC): > 100 µM
TGI (NCI-H522 lung): > 100 µM
TGI (SW-620 colon): > 100 µM
TGI (UACC-257 melanoma): > 100 µM
TGI (UO-31 renal): > 100 µM
TGI (SK-OV-3 ovarian): > 100 µM
TGI (MDA-MB-435): 65.8 µM
TGI (SK-MEL-2 melanoma): > 100 µM
TGI (SF-539 CNS): > 100 µM
TGI (HCC-2998 colon): 53.1 µM
TGI (SF-268 CNS): > 100 µM
TGI (K-562 leukemia): > 100 µM
TGI (COLO 205 colon): > 100 µM
TGI (DU-145 prostate): > 100 µM
TGI (A498 renal): > 100 µM
TGI (LOX IMVI melanoma): 51 µM
TGI (BT-549 breast): > 100 µM
TGI (M14 melanoma): > 100 µM
TGI (OVCAR-5 ovarian): > 100 µM
TGI (MOLT-4 leukemia): 35.8 µM
TGI (A549 NSCLC): > 100 µM
TGI (SNB-75 CNS): > 100 µM
TGI (HL-60(TB) leukemia): 52.8 µM
TGI (UACC-62 melanoma): > 100 µM
TGI (SN12C renal): 47.2 µM

NS(=O)(=O)N(c1cc(C(F)(F)F)cc(C(F)(F)F)c1)C1CCN(Cc2ccc(C(F)(F)F)cc2)CC1
GI50 (U251 CNS): 5.92 µM
TGI (U251 CNS): 12.7 µM
GI50 (NCI/ADR-RES ovarian): 6.82 µM
TGI (NCI/ADR-RES ovarian): 13.3 µM
GI50 (HT29 colon): 2.89 µM
TGI (HT29 colon): 10.2 µM
GI50 (NCI-H23 lung): 6.88 µM
TGI (NCI-H23 lung): 14 µM
GI50 (SF-295 CNS): 6.82 µM
TGI (SF-295 CNS): 13.5 µM
GI50 (NCI-H460 lung): 7.49 µM
TGI (NCI-H460 lung): 16.4 µM
GI50 (ACHN renal): 7.92 µM
TGI (ACHN renal): 14.6 µM
GI50 (SK-MEL-5 melanoma): 7.63 µM
TGI (SK-MEL-5 melanoma): 14.7 µM
GI50 (RXF 393 renal): 5.89 µM
TGI (RXF 393 renal): 12.2 µM
GI50 (MDA-MB-231 breast): 9.65 µM
TGI (MDA-MB-231 breast): 20.8 µM
GI50 (OVCAR-4 ovarian): 6.89 µM
TGI (OVCAR-4 ovarian): 14.5 µM
GI50 (MCF7 breast): 6.09 µM
TGI (MCF7 breast): 12.3 µM
GI50 (HOP-62 NSCLC): 7.94 µM
TGI (HOP-62 NSCLC): 15 µM
GI50 (NCI-H226 lung): 7.9 µM
TGI (NCI-H226 lung): 15.5 µM
GI50 (786-0 renal): 7.47 µM
TGI (786-0 renal): 14.1 µM
GI50 (HCT-116 colon): 5.41 µM
TGI (HCT-116 colon): 11.4 µM
GI50 (MALME-3M melanoma): 7.47 µM
TGI (MALME-3M melanoma): 14.2 µM
GI50 (TK-10 renal): 7.03 µM
TGI (TK-10 renal): 14.5 µM
GI50 (SNB-19 CNS): 9.39 µM
TGI (SNB-19 CNS): 20.2 µM
GI50 (HCT-15 colon): 5.88 µM
TGI (HCT-15 colon): 12.5 µM
GI50 (PC-3 prostate): 4.56 µM
TGI (PC-3 prostate): 12.5 µM
GI50 (HS 578T breast): 6.34 µM
TGI (HS 578T breast): 22.9 µM
GI50 (SK-MEL-28 melanoma): 8.5 µM
TGI (SK-MEL-28 melanoma): 17.7 µM
GI50 (IGROV1 ovarian): 5.56 µM
TGI (IGROV1 ovarian): 11.6 µM
GI50 (OVCAR-8 ovarian): 8.35 µM
TGI (OVCAR-8 ovarian): 17.4 µM
GI50 (OVCAR-3 ovarian): 6.23 µM
TGI (OVCAR-3 ovarian): 12.6 µM
GI50 (KM12 colon): 6.81 µM
TGI (KM12 colon): 14.9 µM
GI50 (T-47D breast): 5.61 µM
TGI (T-47D breast): 11.9 µM
GI50 (EKVX NSCLC): 7.18 µM
TGI (EKVX NSCLC): 15.2 µM
GI50 (NCI-H522 lung): 6.42 µM
TGI (NCI-H522 lung): 13.2 µM
GI50 (SW-620 colon): 6.77 µM
TGI (SW-620 colon): 15.4 µM
GI50 (UACC-257 melanoma): 7.54 µM
TGI (UACC-257 melanoma): 15 µM
GI50 (UO-31 renal): 3.17 µM
TGI (UO-31 renal): 9.87 µM
GI50 (CCRF-CEM leukemia): 8.98 µM
TGI (CCRF-CEM leukemia): 24.2 µM
GI50 (SK-OV-3 ovarian): 9.26 µM
TGI (SK-OV-3 ovarian): 22.2 µM
GI50 (MDA-MB-435): 7.04 µM
TGI (MDA-MB-435): 13.6 µM
GI50 (CAKI-1 renal): 5.04 µM
TGI (CAKI-1 renal): 11.1 µM
GI50 (SK-MEL-2 melanoma): 9.91 µM
TGI (SK-MEL-2 melanoma): 18.3 µM
GI50 (SF-539 CNS): 7.8 µM
TGI (SF-539 CNS): 15.3 µM
GI50 (HCC-2998 colon): 6.9 µM
TGI (HCC-2998 colon): 13.4 µM
GI50 (SF-268 CNS): 7.55 µM
TGI (SF-268 CNS): 17.9 µM
GI50 (K-562 leukemia): 0.409 µM
TGI (K-562 leukemia): 10.3 µM
GI50 (COLO 205 colon): 7.86 µM
TGI (COLO 205 colon): 14.6 µM
GI50 (DU-145 prostate): 7.87 µM
TGI (DU-145 prostate): 15.4 µM
GI50 (A498 renal): 5.61 µM
TGI (A498 renal): 12 µM
GI50 (LOX IMVI melanoma): 7.43 µM
TGI (LOX IMVI melanoma): 14 µM
GI50 (BT-549 breast): 7.99 µM
TGI (BT-549 breast): 14.7 µM
GI50 (M14 melanoma): 7.57 µM
TGI (M14 melanoma): 14.5 µM
GI50 (OVCAR-5 ovarian): 7.88 µM
TGI (OVCAR-5 ovarian): 16 µM
GI50 (MOLT-4 leukemia): 3.77 µM
TGI (MOLT-4 leukemia): 15.9 µM
GI50 (A549 NSCLC): 7.35 µM
TGI (A549 NSCLC): 15.6 µM
GI50 (SNB-75 CNS): 2.86 µM
TGI (SNB-75 CNS): 13 µM
GI50 (RPMI-8226 leukemia): 6.88 µM
TGI (RPMI-8226 leukemia): 20.3 µM
GI50 (HL-60(TB) leukemia): 1.63 µM
TGI (HL-60(TB) leukemia): 7.84 µM
GI50 (UACC-62 melanoma): 7.14 µM
TGI (UACC-62 melanoma): 16.3 µM
GI50 (SN12C renal): 6.86 µM
TGI (SN12C renal): 13.7 µM
